Test [1] has as its target T1, Tyrosine-protein phosphatase non-receptor type 1 (Homo sapiens) (UniProt P18031).
T1 sequence (whole entry): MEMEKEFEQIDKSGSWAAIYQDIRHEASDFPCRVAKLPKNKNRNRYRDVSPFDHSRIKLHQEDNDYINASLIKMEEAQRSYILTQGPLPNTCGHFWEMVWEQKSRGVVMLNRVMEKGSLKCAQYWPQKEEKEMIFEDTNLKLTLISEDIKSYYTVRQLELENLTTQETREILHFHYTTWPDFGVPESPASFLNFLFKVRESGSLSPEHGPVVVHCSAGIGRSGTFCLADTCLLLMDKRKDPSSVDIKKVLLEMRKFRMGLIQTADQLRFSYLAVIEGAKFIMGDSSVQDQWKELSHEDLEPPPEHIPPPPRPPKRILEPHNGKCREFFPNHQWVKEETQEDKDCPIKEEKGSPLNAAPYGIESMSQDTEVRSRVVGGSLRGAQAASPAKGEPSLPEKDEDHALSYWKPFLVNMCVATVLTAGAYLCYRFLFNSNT
Briefly: Apparent pseudo-first-order rate constant of inactivation of Protein Tyrosine Phosphatase (PTP) was determined; value given as 1-25.

Test [2] deals with T1, Tyrosine-protein phosphatase non-receptor type 1 (Homo sapiens). Briefly: The rate constant for the inactivation of mammalian Protein-tyrosine phosphatase 1 (PTP1 ) was evaluated.
For test [3] the target is unchanged. Briefly: Apparent pseudo-first-order rate constant of inactivation of Protein Tyrosine Phosphatase (PTP) was determined; value given as 0.5-2.8.

As for `CN(N=O)c1ccccc1`, the Rate constant in test [1] stood at 1 mM; in test [2] it was 0.0167 M⁻¹ s⁻¹.

As for `CN(N=O)c1cc(O)ccc1O`, the Rate constant in test [3] worked out at 0.5 mM; in test [2], 1.08 M⁻¹ s⁻¹.
